Like-named read-outs stand apart in the source and are kept apart here.
Tested on: KB cells
Assay: Antiproliferative activity against KB cells, cell viability by colorimetric MTT reduction assay
Format: cell-based
Conditions: Homo sapiens
Experimental: Plate KB cells (2X10^3 cells/well) and allow to grow for 18 hours. Treat with 2'-deoxy-5-(1-fluoroethenyl)uridine (15ng/mL) for 24 hours. Wash the compound and expose cells to 5-fluorouracil for another 72 hours. Determine the cell viability by a colorimetric assay, essentially as described by Carmichael et al. [Cancer Res. 47, 936 (1987)], whereby the cellular reduction of MTT [3-(4,5-dimethylthiazol-2-yl)-2,5-diphenyltetrazolium bromide] is measured.
Calculate IC50 values for the individual treatments as well as for the combined treatments of 2'-deoxy-5-(1-fluoroethenyl)-uridine with 5-fluorouracil. The IC50 values at the various concentrations of 2'-deoxy-5-(1-fluoroethenyl)-uridine alone, 5-fluorouracil alone and 2'-deoxy-5-(1-fluoroethenyl)-uridine in combination with 5-fluorouracil are presented in Table 1.

Row | IC50 (individual treatment (compound alone), KB cells, 2X10^3 cells/well, MTT viability, read-out: IC50) | Structure (SMILES) | IC50 (KB)
1 | 9.4 µM | C=C(F)c1cn([C@H]2C[C@H](O)[C@@H](CO)O2)c(=O)[nH]c1=O [2'-Deoxy-5-(1-fluoroethenyl)-uridine, 2'-deoxy-5-(1-fluoroethenyl)uridine] | 
2 |  | O=c1[nH]cc(F)c(=O)[nH]1 [5-Fluorouracil] | 60 µM
